# Results as given in ChEMBL document CHEMBL1201862, “PubChem BioAssay data set” (2004).
#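 96-well plates; 48 h exposure; 5 concentrations. Endpoints by linear interpolation between flanking doses. Not reached: highest tested concentration assigned. The concentration for 50% growth inhibition is given as GI50.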 Calls of active or inactive are those of the source. Rule as the data show it: active = GI50 up to about 1.1 µM and inactive = higher.
# How the values were obtained:
# Experiment in all cases: NCI anticancer screen, dose series, 48 h
# LOX IMVI = test system: LOX IMVI
# HOP-62 = test system: HOP-62
# COLO 205 = test system: COLO 205
# ACHN = test system: ACHN
# SK-MEL-28 = test system: SK-MEL-28
# OVCAR-3 = test system: OVCAR-3
# SF-539 = test system: SF-539
# HT-29 = test system: HT-29
# NCI-H23 = test system: NCI-H23
# RXF 393 = test system: RXF 393
# SK-MEL-5 = test system: SK-MEL-5
# HCT-15 = test system: HCT-15
# SNB-75 = test system: SNB-75
# HL-60 = test system: HL-60
# UO-31 = test system: UO-31
SMILES,GI50 (LOX IMVI),GI50 (HOP-62),GI50 (COLO 205),GI50 (ACHN),GI50 (SK-MEL-28),GI50 (OVCAR-3),GI50 (SF-539),GI50 (HT-29),GI50 (NCI-H23),GI50 (RXF 393),GI50 (SK-MEL-5),GI50 (HCT-15) [µM],GI50 (SNB-75),GI50 (HL-60),GI50 (UO-31)
N#C/C(=C\c1cccc(O)c1)C(N)=O,> 100 µM (inactive),> 100 µM (inactive),> 100 µM (inactive),> 100 µM (inactive),> 100 µM (inactive),> 100 µM (inactive),> 100 µM (inactive),> 100 µM (inactive),> 100 µM (inactive),61.4 µM (inactive),> 100 µM (inactive),> 100,22.3 µM (inactive),20.9 µM (inactive),> 100 µM (inactive)
Oc1cc(-c2ccccn2)nc2cc(F)ccc12,71 µM (inactive),> 100 µM (inactive),74.6 µM (inactive),> 100 µM (inactive),> 100 µM (inactive),> 100 µM (inactive),58.6 µM (inactive),49.1 µM (inactive),> 100 µM (inactive),> 100 µM (inactive),45.1 µM (inactive),,26.5 µM (inactive),> 100 µM (inactive),> 100 µM (inactive)
CC(=O)OC1COC(N2CCc3ccccc32)C(OC(C)=O)C1OC(C)=O (stereo not drawn),> 100 µM (inactive),> 100 µM (inactive),> 100 µM (inactive),> 100 µM (inactive),> 100 µM (inactive),> 100 µM (inactive),> 100 µM (inactive),> 100 µM (inactive),> 100 µM (inactive),> 100 µM (inactive),> 100 µM (inactive),> 100,,,> 58.7 µM (inactive)
CCN1c2ccccc2-c2c3c1cc(C)cc3c1ccccc1[n+]2CC,0.386 µM (active),2.04 µM (inactive),,2.16 µM (inactive),1.19 µM (inactive),0.476 µM (active),1.19 µM (inactive),1.41 µM (inactive),1.32 µM (inactive),2.96 µM (inactive),0.52 µM (active),6.22,0.798 µM (active),1.16 µM (inactive),7.13 µM (inactive)
CC(C)=CC(=O)N1CCN(C(=O)C=C(C)C)CC1,> 100 µM (inactive),> 100 µM (inactive),,> 100 µM (inactive),> 100 µM (inactive),> 100 µM (inactive),> 100 µM (inactive),> 100 µM (inactive),> 100 µM (inactive),,> 100 µM (inactive),> 100,> 100 µM (inactive),> 100 µM (inactive),> 100 µM (inactive)
CC(=O)NNc1nc(C)c(C(/C=C/c2ccc(Cl)cc2)=N\NS(=O)(=O)c2ccc(C)cc2)s1,> 100 µM (inactive),> 100 µM (inactive),> 100 µM (inactive),> 100 µM (inactive),> 100 µM (inactive),> 100 µM (inactive),> 100 µM (inactive),> 100 µM (inactive),> 100 µM (inactive),> 100 µM (inactive),> 100 µM (inactive),> 100,> 100 µM (inactive),> 100 µM (inactive),> 100 µM (inactive)
O=C1C(Cl)C(c2ccccc2Cl)N1n1cnc2ccccc2c1=O (stereo not drawn),19.6 µM (inactive),16.3 µM (inactive),> 100 µM (inactive),76.2 µM (inactive),> 100 µM (inactive),> 100 µM (inactive),,> 100 µM (inactive),49.1 µM (inactive),17.5 µM (inactive),> 100 µM (inactive),72.6,20.2 µM (inactive),8.69 µM (inactive),7.52 µM (inactive)
Clc1cc2ns[s+]c2cc1Cl,9.48 µM (inactive),31.8 µM (inactive),> 88.3 µM (inactive),12.4 µM (inactive),> 81.8 µM (inactive),65 µM (inactive),36.6 µM (inactive),29.3 µM (inactive),73.8 µM (inactive),> 100 µM (inactive),> 37 µM (inactive),4.34,21 µM (inactive),19.3 µM (inactive),28.6 µM (inactive)
CN1C(=S)CSc2ccccc21,> 100 µM (inactive),> 100 µM (inactive),> 100 µM (inactive),> 100 µM (inactive),> 100 µM (inactive),> 100 µM (inactive),> 100 µM (inactive),> 100 µM (inactive),> 100 µM (inactive),> 100 µM (inactive),97.1 µM (inactive),> 100,42.9 µM (inactive),> 100 µM (inactive),42.3 µM (inactive)
COc1ccc(N2C(=O)[C@@H]3[C@H](C2=O)c2[nH]c4ccccc4c2C2CCC(C(C)(C)C)C[C@@H]23)cc1 (stereo partly drawn),22.8 µM (inactive),16.5 µM (inactive),24 µM (inactive),24.3 µM (inactive),34.4 µM (inactive),21.5 µM (inactive),22.9 µM (inactive),29.2 µM (inactive),22.4 µM (inactive),17.3 µM (inactive),41.2 µM (inactive),> 90.4,15.9 µM (inactive),> 100 µM (inactive),> 47.4 µM (inactive)
